# Tests used:
# [1] = tested on: HepG2-GFP human hepatocellular carcinoma; experiment: Orthotopic mouse model of human liver cancer, tumor burden; type: in vivo, athymic nude mice; conditions: 30mg/kg, Qdx35, Gavages
# Method: Female athymic nude mice (6 weeks of age) were used in this study. The animals were purchased from Beijing HFK Bioscience, Co., Ltd and maintained in a High Efficiency Particulate Air Filter (HEPA) filtered environment with cages, food, and bedding sterilized by irradiation or autoclaving. A total of 32 nude mice were used for the study. HepG2-GFP human hepatocellular carcinoma cells (AntiCancer, Inc., San Diego, CA) were incubated with RPMI-1640 (Gibco-BRL, Life Technologies, Inc.), which contained 10% FBS. Cells were grown in a CO2 Water Jacketed Incubator (Forma Scientific) maintaining 37°C and a 5% CO2/95% air atmosphere. Cell viability was determined by trypan blue exclusion analysis. Five female athymic nude mice were injected subcutaneously with a single dose of 5 x 10^6 HepG2-GFP cells. Tumors were harvested when their size reached 1cm^3 and the tumor tissues were then cut into small fragments of 1mm^3. Forty female nude mice were implanted orthotopically with a single piece of tumor fragment, which was derived from a subcutaneous tumor model of HepG2-GFP human hepatocellular carcinoma. The tumor tissue was orthotopically implanted in the right lobe of the liver in each mouse by SOI (Surgical Orthotopic Implantation). Briefly, an upper abdominal incision of 1cm was made under anesthesia. Right lobe of the liver was exposed and a part of the liver surface was injured mechanically by scissors. Then a piece of tumor fragment was fixed within the liver tissue, the liver was returned to the peritoneal cavity and the abdominal wall finally closed. Mice were kept in laminar-flow cabinets under specific pathogen-free-conditions.
# Treatment was started three days after tumor implantation when the implanted tumors reached an average size of around 1 mm^2. The 32 tumor-bearing mice were randomly divided into four experimental groups of 8 mice each. Each cage was clearly marked for its group with four mice per cage. […] Table. Groups and treatment protocol
# During the period of the study, all of the experimental mice were checked daily for mortality or signs of morbidity. […] The body weights of the mice were measured twice weekly during the study period. Images of tumor growth and progression were acquired twice a week during the period of the study with the FluorVivo imaging system, Model 300/Mag (INDEC, CA, USA). […] Livers were exposed for imaging, after which the tumors were removed and weighted with an electronic balance (Sartorius BS 124 S, Germany). Tumor tissues were kept in formalin for further analysis. Comparisons of body weights and tumor burdens in different groups were analyzed using the Student's t-test with an α = 0.05 (two-sided). After intravenously injection of the test agents, the mice had no lying, no autonomous activity reduction. The experimental animals were generally in good condition. Table. Comparison of mean mice body weight at the end of the study
# The progressions of orthotopic HepG2-GFP hepatocellular carcinoma in different groups were monitored by real time imaging. Images were acquired twice a week. Typical tumor images at the end of the study in each group and tumor growth curves derived from the signals of tumor fluorescence, which were analyzed using the Power Station software (INDEC Biosystems, CA, USA), are shown in figure 6 and figure 7, respectively Table. Average tumor size in each group (mm2)
# [2] = Body weight and toxicity in the orthotopic liver cancer mouse model; type: in vivo, athymic nude mice; conditions: mouse, in vivo
# [3] = tested on: A375 melanoma human tumor xenograft; experiment: In vivo human tumor xenograft model, antitumor activity; set-up: species or system nude mice; conditions: 2.5mpk,qdx5x2,ip
# From the text: Specific pathogen-free homozygous female nude mice (nu/nu, Charles River Laboratories) were used. Mice were given food and water ad libitum and housed in microisolator cages. Four to six week old animals were identified by microchips (Locus Technology, Manchester, MD, USA) at the time of the experiments. All animal studies were approved by the Institutional Animal Care and Use Committee at Threshold Pharmaceuticals, Inc.
# All cell lines were from the American Type Culture Collection (ATCC, Rockville, MD, USA).
# Cells were mixed with Matrigel (30% in H460) and 0.2 ml per mouse were subcutaneously implanted to the flank area of the animals. When tumor size reached 100-150 mm^3, mice were randomized into experimental or vehicle groups with 10 mice/group and treatment was started (Day 1). The tested compounds were formulated in 5% DMSO in D5W. All compounds were given by IP, QDx5/wk (5 days on, 2 days off) as one cycle, for a total of 2 cycles. Tumor growth and body weight were measured twice a week. Tumor volume was calculated as (length x width^2)/2. Drug efficacy was assessed as Tumor Growth Inhibition (TGI) and Tumor Growth Delay (TGD). TGI was defined as (1-ΔT/ΔC) x 100, where ΔT/ΔC presented the ratio of the change in mean (or median, if variation within the group was relatively large) tumor volume of the treated group and of the control group. TGD was calculated as the extra days for the treated tumor to reach 500mm^3 as compared to the control group. Animals were culled when individual tumor size reached over 2000mm^3 or mean tumor volume exceeded 1000mm^3 in the group. Data are expressed as the mean ± SEM. One-way analysis of variance with Dunnett post comparison test (GraphPad Prism 4) or two-tailed student's t-test were used for analysis. A P level < 0.05 was considered statistically significant.
# This study employed an A375 melanoma human tumor xenograft model and the compounds provided herein were compared to thiotepa and the approved anti melanoma drug, Abraxane. […] Mpk refers to mg/kg.
Compound,Tumor weight (g) (mean ± sd) [1],Tumor area (mm^2) (mean ± sd) ([1]; fluorescence imaging),tumor inhibition rate IR(%) ([1]; from final average tumor weights),toxicity to the experimental mice [2],Days to 500 mm^3 [3] [days],Days to 1000 mm^3 [3] [days],"TGD500, Days (vs. vehicle) [3] [days]","TGD1000, Days (vs. vehicle) [3] [days]",TGI [3] [%]
"CNC(=O)c1cc(Oc2ccc(NC(=O)Nc3ccc(Cl)c(C(F)(F)F)c3)cc2)ccn1 [Sorafenib, reference compound]",0.0637 ± 0.0389,8.2 ± 5.3,58.7,a certain degree of toxicity,–,–,–,–,–
"S=P(N1CC1)(N1CC1)N1CC1 [Thio-TEPA, thiotepa]",–,–,–,–,18,27,3,2,16.6

# Reference: patent publication EP3390415B1, “(R)- AND (S)-1-(3-(3-N,N-DIMETHYLAMINOCARBONYL)PHENOXYL-4-NITROPHENYL)-1-ETHYL-N,N'-BIS (ETHYLENE)PHOSPHORAMIDATE, COMPOSITIONS AND METHODS FOR THEIR USE AND PREPARATION” (OBI PHARMA, INC., priority 2015, dated 2017)
